Experimental data reported in US8487079B2, “Use of mitochondria-targeted electron scavengers as anti-inflammatory agents” (University of Pittsburgh—Of the Commonwealth System of …, priority 2007, dated 2013).

Tests used:
[1] = system: LPS-induced NO production in RAW 264.7 cells; assay: Nitric oxide secretion (nitrite assay) by LPS-stimulated RAW 264.7 cells; format: cell-based, murine; conditions: for NO secretion by LPS-stimulated RAW 264.7 cells: graded concentrations, added 1 h before LPS, 24 hours
Protocol: RAW 264.7 cells were obtained from the American Type Culture Collection (Manassas, Va.). Cells were maintained in DMEM supplemented with 10% FBS, 100 units/ml penicillin, and 100 μg/ml streptomycin at 37° C. in a humidified incubator (5% CO2, 95% air). For stimulation experiments, cells were transferred to 24-well polystyrene culture plates (Corning Life Sciences, Corning, N.Y.) at 0.3 or 1×10^6 cells/well (depending on the experiment) in 1 ml of medium per well. After overnight incubation, the medium was removed and replaced with DMEM containing 0.25% FBS. Cells were stimulated by adding 0.1 μg/ml to 1 μg/ml Escherichia coli 0111:B4 lipopolysaccharide (LPS) in the presence or absence of graded concentrations of XJB-5-131 or XJB-5-208.
(§1) Nitrite (NO2^−) concentrations were measured in cell supernatants and blood serum as an indicator of nitric oxide (.NO) production, where .NO readily oxidize into nitrites (NO2^−) and nitrates (NO3^−). The total concentration of .NO was determined by reducing NO3^− to NO2^− using cadmium and detecting NO2^− using the Greiss reagent and potassium nitrite as a standard.
(§2) Samples (200 μL) were incubated with 30% zinc sulfate to precipitate proteins and then centrifuged (4° C., 12,000 g, 5 min). Supernatants were added to 0.6 g activated cadmium (previously washed twice with each deionized H2O, 0.1 M HCl, and 0.1 NH4OH) and allowed to shake overnight at room temperature. The supernatants were removed. Greiss reagent (100 μL) was mixed with an equal volume of supernatant. Reaction between the Greiss reagent and NO2^−) yielded an azo dye that can be detected spectrophotometrically. Absorbance was measured at 550 nm using a Packard Fusion™ microplate reader (PerkinElmer, Wellesley, Mass.).
RAW 264.7 murine macrophage-like cells were incubated in the presence or absence of graded concentrations of XJB-5-131 or XJB-5-208. Concentrations of either XJB-5-131 or XJB-5-208 were dissolved in dimethyl sulfoxide (DMSO). During these experiments, the highest concentration of DMSO remaining in the cell culture was 0.18% (v/v). […]

[2] = system: iNOS mRNA in RAW 264.7 cells; assay: iNOS mRNA expression in LPS-stimulated RAW 264.7 cells (real-time RT-PCR); format: cell-based, mouse; conditions: LPS 100 ng/ml, 24 hours; for LPS-induced iNOS mRNA up-regulation: RT-PCR
Protocol: RAW 264.7 cells and liver tissue specimens were lysed with TRI-Reagent® (Molecular Research Center, Cincinnati, Ohio). Bromochloropropane (0.5 mL) was added in order to extract total RNA. After vigorous agitation and centrifugation (4° C., 12,000 g, 12 min), the aqueous phase containing RNA was collected. The RNA was precipitated with isopropanol (0.5 mL). The pellet was washed with 75% ethanol (1 mL) and centrifuged (4° C., 12,000 g, 5 min) twice, and then dissolved in RNA-free water. Total RNA was quantified using UV spectrophotometry (GeneQuant™ pro, GE Healthcare). Extracted RNAs (1 μg/reaction) were converted to single-strand cDNAs in a 20 μL volume reaction, using the Reverse Transcriptase System Kit (Promega, Madison, Wis.) as directed by the manufacturer. In a Gene Amp® PCR System 9700 (Applied Biosystems, Foster City, Calif.), the mixture was heated to 70° C. for 10 min, maintained at 42° C. for 30 min, and then heated to 95° C. for 5 min to terminate the reaction. TaqMan® Gene Expression Assays (Applied Biosystems) for 18S (endogenous control) and mouse iNOS were used. Reaction mixtures for PCR were assembled as follows: 10 μL TaqMan® Universal PCR Master Mix (Applied Biosystems), 1 μL of each assay, 5 μL cDNA template, and 3 μL of water. PCR reactions were performed in a thermocycler 7300 Real Time PCR System (Applied Biosystems) under recommended conditions (50° C. for 2 min; 95° C. for 10 min; 95° C. for 15 s; 60° C. for 1 min). The two last steps were repeated for 40 cycles. […] The ΔC^T relative quantification method was used to calculate mRNA levels for iNOS in the samples, as previously described (Scharte M, Han X, Bertges D J et al. Cytokines induce HIF-1 DNA binding and the expression of HIF-1-dependent genes in cultured rat enterocytes. Am J Physiol Gastrointest Liver Physiol 2003, 284:G373-G384). […]
RAW 264.7 cells were incubated in presence or absence of graded concentrations of XJB-5-131 or XJB-5-208. […] After 24 hours, steady-state levels of iNOS mRNA were measured using real-time quantitative RT-PCR.

[3] = system: HMGB1 secretion by RAW 264.7 cells; assay: HMGB1 secretion by LPS-stimulated RAW 264.7 cells (Western blot); format: cell-based, murine; conditions: LPS 1 μg/ml, 48 or 72 h, Western blot of supernatant
Protocol: Equal volumes of cell culture supernatants were mixed with Laemmli buffer (20% glycerol, 10% beta-mercaptoethanol, 5% SDS, 0.2 M Tris.HCl, pH 6.8, and 0.4% bromophenol blue). After boiling for 10 min, the samples were subjected to 10% SDS-polyacrylamide gel electrophoresis. The resolved proteins were transferred to Hybond™-P polyvinylidene difluoride membranes (GE Healthcare, Chalfont St. Giles, UK), and blocked with bovine lacto-transfer optimizer buffer (1×PBS, 5% nonfat milk, and 0.05% Tween® 20) for 1 h. The membranes were incubated overnight at 4° C. with a 1:2000 dilution of rabbit polyclonal anti-HMGB1 antibody (generously provided by Dr. Michael T. Lotze, University of Pittsburgh) in blocking buffer. After washing three times in 1×PBST (1×PBS with 0.3% Triton X-100), immunoblots were exposed at room temperature for 1 h to a 1:20,000 dilution of horseradish peroxidase-conjugated goat anti-rabbit secondary antibody (Sigma-Aldrich, St. Louis, Mo.). After washing three times with 1×PBST, the membranes were illuminated with the ECL Plus™ substrate (GE Healthcare) and the X-ray films exposed, according to the manufacturer's instructions.
RAW 264.7 cells were cultured in the absence or presence of LPS (1 μg/ml). Some cells were co-incubated with graded concentrations of XJB-5-131. […]

[4] = system: C57B1/6J mice challenged with LPS; assay: Plasma nitrite/nitrate in LPS-challenged mice; format: in vivo; design: unit not given here; conditions: 2 μmol/kg 60 min before i.p. LPS 15 mg/kg, blood 24 h after LPS, LPS alone 321.8±70.1, control 41.8±7.0, mean±SEM, p<0.05
Protocol: as §1, §2
All experiments using mice followed the guidelines for the use of experimental animals of the U.S. National Institutes of Health and were approved by the Institutional Animal Care and Use Committee at the University of Pittsburgh. […]

[5] = system: iNOS mRNA in hepatic tissue of LPS-challenged mice; assay: Hepatic iNOS mRNA expression in LPS-challenged mice; format: in vivo; conditions: 2 μmol/kg 1 h before i.p. LPS 15 mg/kg, 24 h after LPS, RT-PCR
Protocol: RAW 264.7 cells and liver tissue specimens were lysed with TRI-Reagent® (Molecular Research Center, Cincinnati, Ohio). Bromochloropropane (0.5 mL) was added in order to extract total RNA. After vigorous agitation and centrifugation (4° C., 12,000 g, 12 min), the aqueous phase containing RNA was collected. The RNA was precipitated with isopropanol (0.5 mL). The pellet was washed with 75% ethanol (1 mL) and centrifuged (4° C., 12,000 g, 5 min) twice, and then dissolved in RNA-free water. Total RNA was quantified using UV spectrophotometry (GeneQuant™ pro, GE Healthcare). Extracted RNAs (1 μg/reaction) were converted to single-strand cDNAs in a 20 μL volume reaction, using the Reverse Transcriptase System Kit (Promega, Madison, Wis.) as directed by the manufacturer. […] The ΔC^T relative quantification method was used to calculate mRNA levels for iNOS in the samples, as previously described (Scharte M, Han X, Bertges D J et al. Cytokines induce HIF-1 DNA binding and the expression of HIF-1-dependent genes in cultured rat enterocytes. Am J Physiol Gastrointest Liver Physiol 2003, 284:G373-G384). […]
Mice were randomly pretreated with a solution containing XJB-5-131 (2 μmol/kg) or a similar volume (2 ml/kg) of vehicle, a 67:33 (v/v) mixture of DMSO and normal saline. […] Subsequently, iNOS mRNA expression was measured, using quantitative real-time RT-PCR. […]

Compound	IC50 ([1]; Mus musculus, RAW264.7, 24 h, RAW 264.7 cells, LPS 100 or 1000 ng/ml, NO2- plus NO3- in supernatant, approximate, read-out: IC50 for inhibition of LPS-induced NO production)	NO secretion by LPS-stimulated RAW 264.7 cells [1]	Potency in inhibiting LPS-induced iNOS up-regulation, relative to XJB-5-208 [2]	LPS-induced iNOS mRNA up-regulation [2]	LPS-induced HMGB1 secretion [3]	concentration of nitrites within blood plasma [4]	iNOS expression in liver samples [5]
CC(C)C[C@@H](/C=C/[C@H](Cc1ccccc1)C(=O)N1CCC[C@H]1C(=O)N[C@H](C(=O)N[C@@H](CCCNC(=O)OCc1ccccc1)C(=O)NC1CC(C)(C)N([O])C(C)(C)C1)C(C)C)NC(=O)OC(C)(C)C [XJB-5-131, N-Boc-Leu-[(E)-CH═CH]-^DPhe-Pro-Val-Orn(Cbz)-N-TEMPO]	~3000 nM	significantly reduced	more potent	inhibited LPS-induced iNOS up-regulation	inhibited LPS-induced HMGB1 secretion in a concentration-dependent fashion	179.5±34.6	attenuated iNOS expression in liver samples
N-Boc-Leu-[(E)-CH═CH]-^DPhe-N-TEMPO [XJB-5-208]		significantly reduced		inhibited LPS-induced iNOS up-regulation			
